Data set [1] concerns healthy subjects. From the text: To date, there has been one clinical trial that evaluated the safety of R(−)-ketamine.
Data set [2] has as its system CYP2B6. The settings on record: in vitro.
Data set [3] deals with rodents. Conditions: 10 mg/kg; cited from earlier work.
For data set [4], the system named is mouse model of depression. The settings on record: cited from earlier work.
For data set [5], the system named is rodents. Conditions: cited from earlier work.
Data set [6] has as its system healthy volunteers. The settings on record: up to 1 mg/kg IV or 1.8 mg/kg intramuscular; cited from earlier work.

Where two headings read alike, the source gives them in different places.

Consider `CN[C@@]1(c2ccccc2Cl)CCCCC1=O.Cl` [R(−)-ketamine, (2R)-2-(2-chlorophenyl)-2-(methylamino)cyclohexan-1-one], for which the “Safety findings compared with 100 mg or 150 mg doses” value in data set [1] (30 mg and 60 mg doses) is “fewer transient elevations in mean systemic blood pressure, less sedation, fewer psychological or psychotic and dissociative effects, and fewer episodes of altered consciousness”. Further, the “Dose level most similar to 15 mg S(+)-ketamine in terms of safety profile” value in data set [1] (healthy subjects) stood at 60 mg. In addition, the “Doses with acceptable safety profiles” value in data set [1] (single 40-minute IV infusions, healthy subjects) is recorded as at most 150 mg. For the same molecule, in data set [2], the CYP2B6 induction entry is “inducer”. In addition, in data set [3], the “Antidepressant effect compared with S(+)-ketamine” value was “longer acting and more potent effects than S(+)-ketamine”. In addition, in data set [4], the “Antidepressant effects on depression-like symptoms” value is reported as “more potent antidepressant effects on the depression-like symptoms when compared to S(+)-ketamine”. Moreover, the Conditioned place preference result in data set [5] (20 mg/kg) is on record as “did not cause conditioned place preference”; in data set [5] (40 mg/kg), “did cause conditioned place preference”. For the same molecule, in data set [6], the “Psychotomimetic and dissociative-like effects compared with S(+)-ketamine” value is “less pronounced psychotomimetic and dissociative-like effects”.

The record behind these values is patent US20260027068A1, “METHODS OF ADM[…]-KETAMINE” (Perception Neuroscience, Inc., priority 2022, published 2026).
